According to patent US20020035061A1, “COMPOSITIONS AND METHODS FOR TREATING INFECTIONS USING CATIONIC PEPTIDES ALONE OR IN COMBINATION WITH ANTIBIOTICS” (priority 1996, published 2002):

Assays:
[1] = system: microorganisms with acquired resistance; test: microbe, parasite or virus in culture; format: cell-based; conditions: for Peptide MIC: in µg/mL
[2] = system: vancomycin / teicoplanin resistant enterococci; test: microbe, parasite or virus in culture; format: cell-based; conditions: for Vancomycin MIC + Peptide: in combination with the labelled peptide; for Peptide MIC + Vancomycin: in combination with vancomycin

KWKSFIKKLTSAAKKVVTTAKPLISS [MBI 26]
1: Peptide MIC ([1]; S. haemolyticus, combination with Clindamycin)
0.53: FIC ([1]; peptide + Ceftriaxone, A. baumannii ABI005) | FIC ([1]; peptide + Gentamicin, A. baumannii ABI002) | FIC ([1]; peptide + Gentamicin, S. maltophilia SMA019) | FIC ([2]; Vancomycin + peptide, E. faecium EFM010)
64 µg/mL: Peptide MIC + Tobramycin ([1]; S. maltophilia SMA027) | MBI 26 Alone (MIC) ([2]; E. faecalis VanA strains) | Peptide MIC Alone ([2]; E. faecium EFM004) | Peptide MIC Alone ([2]; E. faecium EFM004, Amikacin section) | Peptide MIC Alone ([2]; E. faecium EFM020, Amikacin section)
0.16: FIC ([1]; peptide + Piperacillin, E. cloacae 13)
become susceptible to teicoplanin: susceptibility of teicoplanin resistant enterococci to teicoplanin ([2]; teicoplanin in combination with peptide)
0.31: FIC ([1]; peptide + Piperacillin, E. cloacae 19) | FIC ([2]; Vancomycin + peptide, E. faecalis EFS005) | FIC ([2]; Vancomycin + peptide, E. faecium EFM011)
1 µg/mL: Gentamicin MIC + Peptide ([1]; S. maltophilia SMA017) | Vancomycin MIC + Peptide ([2]; E. faecalis EFS010) | Vancomycin MIC + Peptide ([2]; E. faecium EFM010) | Peptide MIC + Vancomycin ([2]; E. faecalis EFS010)
0.56: FIC ([1]; peptide + Ceftriaxone, A. baumannii ABI006) | FIC ([1]; peptide + Ciprofloxacin, P. aeruginosa PA77) | FIC ([1]; peptide + Gentamicin, A. baumannii ABI001) | FIC ([1]; peptide + Piperacillin, P. aeruginosa 26) | FIC ([2]; peptide + Amikacin, E. faecium EFM004)
16 µg/mL: Peptide MIC Alone ([1]; S. epidermidis SE071, Tobramycin section) | Piperacillin MIC + Peptide ([1]; S. maltophilia 2) | Piperacillin MIC + Peptide ([1]; S. maltophilia 4) | Peptide MIC Alone ([1]; S. maltophilia 4, Piperacillin section) | Peptide MIC + Ciprofloxacin ([1]; S. maltophilia 35) | Peptide MIC + Piperacillin ([1]; S. maltophilia 35) | Piperacillin MIC + Peptide ([1]; S. maltophilia 41) | Peptide MIC Alone ([1]; S. maltophilia SMA017, Gentamicin section) | Peptide MIC + Piperacillin ([1]; S. marcescens 1) | Peptide MIC + Vancomycin ([2]; E. faecalis EFS005) | Peptide MIC + Vancomycin ([2]; E. faecium EFM004) | Peptide MIC + Vancomycin ([2]; E. faecium EFM010)
0.52: FIC ([1]; peptide + Gentamicin, S. maltophilia SMA017) | FIC ([1]; peptide + Piperacillin, S. maltophilia 41)
2: Peptide MIC ([1]; S. epidermidis, combination with Clindamycin) | Peptide MIC ([1]; S. haemolyticus, combination with Methicillin)
4 µg/mL: Tobramycin MIC + Peptide ([1]; S. epidermidis SE068) | Peptide MIC Alone ([1]; S. maltophilia 2, Piperacillin section) | Piperacillin MIC + Peptide ([1]; S. maltophilia 35) | Peptide MIC Alone ([1]; S. maltophilia SMA019, Gentamicin section) | Tobramycin MIC + Peptide ([1]; S. maltophilia SMA027) | Peptide MIC Alone ([2]; E. faecalis EFS010) | Vancomycin MIC + Peptide ([2]; E. faecalis EFS005)
0.19: FIC ([1]; peptide + Ceftriaxone, E. cloacae ECL015) | FIC ([1]; peptide + Piperacillin, H. influenzae 1) | FIC ([1]; peptide + Piperacillin, H. influenzae 2)
128 µg/mL: Peptide MIC Alone ([1]; P. aeruginosa PA77, Ciprofloxacin section)
0.38: FIC ([1]; peptide + Ciprofloxacin, A. calcoaceticus 5) | FIC ([1]; peptide + Ciprofloxacin, E. cloacae 16) | FIC ([1]; peptide + Ciprofloxacin, E. cloacae 17)
4: Peptide MIC ([1]; S. aureus, combination with Mupirocin)
become susceptible to vancomycin: susceptibility of vancomycin resistant enterococci (VRE) to vancomycin ([2]; vancomycin in combination with peptide)
32: Peptide MIC ([1]; S. maltophilia, combination with Piperacillin)
0.75: FIC ([1]; peptide + Gentamicin, P. aeruginosa PA023) | FIC ([1]; peptide + Gentamicin, P. aeruginosa PA041) | FIC ([1]; peptide + Piperacillin, S. maltophilia 2) | FIC ([1]; peptide + Tobramycin, P. aeruginosa PA031) | FIC ([2]; peptide + Amikacin, E. faecium EFM020)
0.50: FIC ([1]; peptide + Ceftriaxone, B. cepacia BC003) | FIC ([1]; peptide + Ciprofloxacin, P. aeruginosa PA41) | FIC ([1]; peptide + Ciprofloxacin, S. maltophilia 35) | FIC ([1]; peptide + Piperacillin, A. calcoaceticus 2) | FIC ([1]; peptide + Tobramycin, S. epidermidis SE071) | FIC ([1]; peptide + Tobramycin, S. maltophilia SMA027)
0.63: FIC ([1]; peptide + Piperacillin, S. maltophilia 4)
0.125 µg/mL: Tobramycin MIC + Peptide ([1]; S. epidermidis SE071) | Vancomycin MIC + Peptide ([2]; E. faecium EFM004)
32 µg/mL: Peptide MIC + Piperacillin ([1]; S. maltophilia 41) | Peptide MIC + Amikacin ([2]; E. faecium EFM004) | Peptide MIC Alone ([2]; E. faecium EFM010) | Peptide MIC Alone ([2]; E. faecium EFM011) | Peptide MIC + Amikacin ([2]; E. faecium EFM020) | Peptide MIC + Vancomycin ([2]; E. faecalis EFS011)
2 µg/mL: Peptide MIC Alone ([1]; S. epidermidis SE068, Tobramycin section) | Peptide MIC + Piperacillin ([1]; S. maltophilia 2) | Gentamicin MIC + Peptide ([1]; S. maltophilia SMA019) | Peptide MIC + Gentamicin ([1]; S. maltophilia SMA019) | Piperacillin MIC + Peptide ([1]; S. marcescens 1) | Vancomycin MIC + Peptide ([2]; E. faecalis EFS011) | Vancomycin MIC + Peptide ([2]; E. faecium EFM011)
0.09: FIC ([1]; peptide + Ciprofloxacin, P. aeruginosa 30) | FIC ([1]; peptide + Piperacillin, S. marcescens 1)
>128 µg/mL: Peptide MIC Alone ([1]; S. maltophilia SMA027, Tobramycin section) | Peptide MIC Alone ([1]; S. marcescens 1, Piperacillin section) | Peptide MIC Alone ([2]; E. faecalis EFS005) | Peptide MIC Alone ([2]; E. faecalis EFS011)
0.26: FIC ([1]; peptide + Piperacillin, S. maltophilia 35)
0.5 µg/mL: Peptide MIC + Tobramycin ([1]; S. epidermidis SE068) | Ciprofloxacin MIC + Peptide ([1]; S. maltophilia 35)
0.25: Peptide MIC ([1]; S. aureus, combination with Ampicillin) | FIC ([1]; peptide + Ciprofloxacin, S. maltophilia 34) | FIC ([1]; peptide + Piperacillin, A. calcoaceticus 7) | FIC ([1]; peptide + Piperacillin, P. aeruginosa 7) | FIC ([2]; Vancomycin + peptide, E. faecalis EFS011) | FIC ([2]; Vancomycin + peptide, E. faecium EFM004)
0.25 µg/mL: Ciprofloxacin MIC + Peptide ([1]; S. maltophilia 34)
8 µg/mL: Peptide MIC + Tobramycin ([1]; S. epidermidis SE071) | Peptide MIC + Piperacillin ([1]; S. maltophilia 4) | Peptide MIC + Ciprofloxacin ([1]; S. maltophilia 34) | Peptide MIC + Gentamicin ([1]; S. maltophilia SMA017) | MBI 26 + Teicoplanin (MIC) ([2]; E. faecalis VanA strains, in combination with teicoplanin) | Amikacin MIC + Peptide ([2]; E. faecium EFM004) | Amikacin MIC + Peptide ([2]; E. faecium EFM020) | Peptide MIC + Vancomycin ([2]; E. faecium EFM011)
0.27: FIC ([1]; peptide + Ciprofloxacin, P. aeruginosa 31) | FIC ([1]; peptide + Piperacillin, P. aeruginosa 23) | FIC ([1]; peptide + Tobramycin, S. epidermidis SE068) | FIC ([2]; Vancomycin + peptide, E. faecalis EFS010)
>32 µg/mL: Peptide MIC Alone ([1]; S. maltophilia 34, Ciprofloxacin section) | Peptide MIC Alone ([1]; S. maltophilia 35, Ciprofloxacin section) | Peptide MIC Alone ([1]; S. maltophilia 35, Piperacillin section) | Peptide MIC Alone ([1]; S. maltophilia 41, Piperacillin section)
